Source: patent US10100285B2, “Ex vivo proliferation of epithelial cells” (PROPAGENIX INC., priority 2015, dated 2018)
“Also recorded” adds a separate entry of the source. Counter-ions that a name gives are not always drawn. Like-named read-outs stand apart in the source and are kept apart here.

Tests used:
[1] = test system: late passage prostate epithelial cells; type: cell-based; settings: for increase of total cell number after 5 days: KSFM plus individual compound alone at 5 μM; for increase of total cell number after 5 days / cell proliferation when used together with A83-01: 1 μM, 0.2 μM; for cell proliferation when used together with A83-01: KSFM supplemented with A83-01 plus compound at 5 μM, 5 days
Source text: As described above, these include Rho kinase inhibitors (i.e., Rho-associated protein kinase inhibitors) such as Y-27632, SR 3677, GSK 429286 and Thiazovivin; PAK1 inhibitor IPA-3; and myosin II inhibitor (i.e., non-muscle myosin II (NM II) inhibitor) Blebbistatin.

[2] = test system: human telomerase reverse transcriptase (hTERT) expression in prostate epithelial cells; assay: hTERT expression by quantitative real-time PCR in prostate epithelial cells; type: cell-based; settings: KSFM
Description: (§1) Total RNA was prepared using TRIzol® Plus RNA Purification Kit (Life Technologies, 12183-555) and PureLink® RNA Mini Kit (Life Technologies, 12183018A), following the manufacturer's instructions. One hundred nanogram total RNA was used for the determination of human telomerase reverse transcriptase (hTERT) expression using the TaqMan® RNA-to-CT™ 1-Step Kit (Life Technologies, 4392938), following the protocol provided by the supplier. hTERT primers and Taqman probe used were as follows: forward primer, 5′-[…]-3′ (SEQ ID NO:1), reverse primer, 5′-[…]-3′ (SEQ ID NO:2) and Taqman probe, 5′-[…]-3′ (SEQ ID NO:3).
(§2) In this example, hTERT expression in epithelial cells was assessed in the presence of an ALK5 inhibitor, a Rho kinase inhibitor (i.e., a Rho-associated protein kinase inhibitor), or both. Expression of hTERT gene was examined by quantitative real-time PCR in bronchial epithelial cells and prostate epithelial cells. The cells were treated with an ALK5 inhibitor, A83-01, or a Rho kinase inhibitor (i.e., a Rho-associated protein kinase inhibitor), Y-27632, or both inhibitors, at different passages in KSFM.
As shown in FIG. 6A and FIG. 6B, prostate epithelial cells at early passage (p2) expressed low level of hTERT, which quickly diminished at passage 3 and became non-detectable by passage 5.

[3] = test system: bronchial epithelial cells; assay: Growth (population doublings) of bronchial epithelial cells; type: cell-based, human; settings: KSFM; for total population doublings: serial culture (FIG. 15)
Description: (§3) Epithelial cells (prostate epithelial cells and bronchial epithelial cells) were plated at 3,000-10,000 viable cells/cm^2 in tissue culture vessels, using culture medium as indicated in Examples 2 to 5 and FIGS. 1 to 17, and incubated at 37° C. with 5% CO2. The medium was changed every 2 or 3 days. Cells were sub-cultured using standard trypsinization method when they were about 70-90% confluent. Total cell number was determined using the Countess II Automated Cell Counter (Life Technologies, AMQAX1000) following manufacturer's instructions.
(§4) A formula used for the calculation of population doublings (PD) is presented in Equation A: n=3.32*(log Y−log I)+X Equation A where n=the final PD number at end of a given subculture, Y=the cell yield at the time of harvesting, I=the cell number used as inoculum to begin that subculture, and X=the doubling level of the inoculum used to initiate the subculture being quantitated.
(§5) Prostate and bronchial epithelial cells were grown in KSFM in the presence of Rho kinase inhibitor (i.e., Rho-associated protein kinase inhibitor) Y-27632.
Similar to the experiment above, bronchial epithelial cells were grown in KSFM in the presence of media alone, ALK5 inhibitor A83-01, Rho kinase inhibitor (i.e., Rho-associated protein kinase inhibitor) Y-27632, or both (with or without collagen).

[4] = test system: bronchial epithelial cells; assay: Plating efficiency of bronchial epithelial cells in KSFM; type: cell-based, human
Source text: (§6) In this example, epithelial cell plating efficiency, i.e., number of cells that efficiently attach to the cell culture surfaces, continue to divide and grow into colonies, was examined under various conditions.
(§7) However, those few cells that did attach continued to proliferate.
Many bronchial epithelial cells attached to regular tissue culture surface in the presence of both A83-01 and Y-27632 at day 2 after plating.

[5] = test system: prostate epithelial cells; assay: Plating efficiency of prostate epithelial cells in KSFM; type: cell-based, human
Source text: as §6, §7
Many prostate epithelial cells attached to regular tissue culture surface in the presence of both A83-01 and Y-27632 at day 2 after plating.

[6] = test system: human telomerase reverse transcriptase (hTERT) expression in bronchial epithelial cells; assay: hTERT expression by quantitative real-time PCR in bronchial epithelial cells; type: cell-based; settings: KSFM
Description: as §1, §2

[7] = test system: prostate epithelial cells; assay: Growth (population doublings) of prostate epithelial cells; type: cell-based, human; settings: KSFM; for total population doublings: serial culture (FIG. 14)
Description: as §3, §4, §5
To examine the effects of additional in vitro and/or ex vivo growth conditions, prostate epithelial cells were grown in KSFM or PrEGM in the presence of media alone, ALK5 inhibitor A83-01, Rho kinase inhibitor (i.e., Rho-associated protein kinase inhibitor) Y-27632, or both (with or without collagen).

[8] = test system: human foreskin keratinocytes (HFK) and human bronchial epithelial cells (HBEC); assay: Cell growth with increasing concentrations of isoproterenol; type: cell-based; settings: added to KSFM plus 1 μM A83-01 and 5 μM Y-27632, six days
Description: In a further investigation, epithelial cell growth was assessed in the presence of a beta-adrenergic agonist (i.e., a beta-adrenergic receptor agonist). Human foreskin keratinocytes (HFK) and human bronchial epithelial cells (HBEC) were cultured in KSFM plus 1 μM A83-01 and 5 μM Y-27632, supplemented with increasing concentrations of isoproterenol (a beta-adrenergic receptor agonist that increases cytosolic cAMP levels). Cell numbers were counted after six days to calculate cell growth relative to control.

[9] = regular (uncoated) tissue culture surface
[10] = used alone, continuous use (FIG. 13)
[11] = added together with A83-01, regular tissue culture surface

SMILES: Cc1ccc2c(c1)C(=O)C1(O)CCN(c3ccccc3)C1=N2 (racemic) [Blebbistatin, (±)-1,2,3,3a-Tetrahydro-3a-hydroxy-6-methyl-1-phenyl-4H-pyrrolo[2,3-b]quinolin-4-one]
- increase of total cell number after 5 days [1]: did not increase proliferation
- cell proliferation when used together with A83-01 [1]: synergistically increased

SMILES: Cc1cccc(-c2nn(C(=S)Nc3ccccc3)cc2-c2ccnc3ccccc23)n1 [A83-01, 3-(6-Methyl-2-pyridinyl)-N-phenyl-4-(4-quinolinyl)-1H-pyrazole-1-carbothioamide]
- hTERT expression ([2]; early passage (p2)): quickly induced hTERT expression
- hTERT expression ([2]; late passage (p5)): sustained measurable hTERT expression
- increase of total cell number after 5 days [1]: pronounced increase of total cell number; also recorded: significantly increased
- total population doublings [3]: also increased the total population doublings
- plating efficiency [4, 9]: interfered with bronchial epithelial cell plating efficiency
- plating efficiency [5, 9]: interfered with prostate epithelial cell plating efficiency
- hTERT expression ([6]; early passage (p3)): robustly induced hTERT expression
- hTERT expression ([6]; late passage (p6)): sustained measurable hTERT expression
- total population doublings [7]: also increased the total population doublings

SMILES: CC1=C(C(=O)Nc2cc3cn[nH]c3cc2F)C(c2ccc(C(F)(F)F)cc2)CC(=O)N1 (stereo not shown) [GSK 429286, 4-[4-(Trifluoromethyl)phenyl]-N-(6-Fluoro-1H-indazol-5-yl)-2-methyl-6-oxo-1,4,5,6-tetrahydro-3-pyridinecarboxamide]
- increase of total cell number after 5 days [1]: slight increase of total cell numbers
- cell proliferation when used together with A83-01 [1]: synergistic effect

SMILES: O=C(NC1CCOCC1)c1ccc(-c2cc(-c3c[nH]nc3-c3ccccn3)ccn2)cc1 [GW 788388, 4-[4-[3-(2-Pyridinyl)-1H-pyrazol-4-yl]-2-pyridinyl]-N-(tetrahydro-2H-pyran-4-yl)-benzamide]
- increase of total cell number after 5 days [1]: pronounced increase of total cell number
- cell proliferation when used together with A83-01 [1]: little extra increase

SMILES: Oc1ccc2ccccc2c1SSc1c(O)ccc2ccccc12 [IPA-3, 1,1′-Dithiodi-2-naphthol]
- increase of total cell number after 5 days [1]: did not increase proliferation
- cell proliferation when used together with A83-01 [1]: synergistically increased
- cell death ([1]; highest concentration tested (5 μM)): nearly total cell death

SMILES: Cc1cccc(-c2n[nH]cc2-c2ccc3ncccc3n2)n1 [RepSox, 2-(3-(6-Methylpyridine-2-yl)-1H-pyrazol-4-yl)-1,5-naphthyridine]
- increase of total cell number after 5 days [1]: pronounced increase of total cell number
- cell proliferation when used together with A83-01 [1]: little extra increase

SMILES: NC(=O)c1ccc(-c2nc(-c3ccc4c(c3)OCO4)c(-c3ccccn3)[nH]2)cc1 [SB 431542, 4-[4-(1,3-benzodioxol-5-yl)-5-(2-pyridinyl)-1H-imidazol-2-yl]benzamide]
- increase of total cell number after 5 days [1]: pronounced increase of total cell number
- cell proliferation when used together with A83-01 [1]: little extra increase

SMILES: CN(C)CCOc1cc(-c2cn[nH]c2)ccc1NC(=O)C1COc2ccccc2O1 (stereo not shown) [SR 3677, N-[2-[2-(Dimethylamino)ethoxy]-4-(1H-pyrazol-4-yl)phenyl-2,3-dihydro-1,4-benzodioxin-2-carboxamidedi hydrochloride]
- increase of total cell number after 5 days [1]: slight increase of total cell numbers
- cell proliferation when used together with A83-01 [1]: synergistic effect

SMILES: O=C(NCc1ccccc1)c1csc(Nc2ccncn2)n1 [Thiazovivin, N-Benzyl-[2-(pyrimidin-4-yl)amino]thiazole-4-carboxamide]
- increase of total cell number after 5 days [1]: slight increase of total cell numbers
- cell proliferation when used together with A83-01 [1]: synergistic effect

SMILES: C[C@@H](N)[C@H]1CC[C@H](C(=O)Nc2ccncc2)CC1.Cl.Cl [Y-27632, (R)-(+)-trans-4-(1-Aminoethyl)-N-(4-Pyridyl)cyclohexanecarboxamide dihydrochloride]
- hTERT expression ([2]; early passage (p2)): induced hTERT expression
- hTERT expression ([2]; late passage (p5)): non-detectable
- increase of total cell number after 5 days ([1]; dihydrochloride): slight increase of total cell numbers; also recorded: slight increase of cell proliferation
- cell proliferation when used together with A83-01 [1]: synergistically increased
- total population doublings [3]: slightly increased the total population doublings
- proliferation at late passage [3, 10]: did not promote the proliferation
- plating efficiency [4, 11]: ameliorated the low plating efficiency
- plating efficiency [5, 11]: ameliorated the low plating efficiency
- hTERT expression ([6]; early passage (p3)): slightly induced hTERT expression
- hTERT expression ([6]; late passage (p6)): non-detectable
- population doubling reached shortly before senescence [7]: > 20 PD
- total population doublings [7]: slightly increased the total population doublings
- proliferation at late passage [7, 10]: did not promote the proliferation

SMILES: CC(C)NCC(O)c1ccc(O)c(O)c1 (stereo not shown) [isoproterenol]
- cell growth relative to control [8]: further increased epithelial cells growth
